Results: US20130040390A1, “CULTURE MEDIUM SUPPLEMENT AND USE THEREOF” (GUANGZHOU INSTITUTES OF BIOMEDICINE AND HEALTH, CHINESE …, priority 2010, published 2013)

Experiments:
Type in all cases: cell-based, mouse
Oct4-GFP MEFs [1] = test: iPS efficiency test: MEFs infected with SKO viruses, reprogrammed clones counted / GFP cell ratio by FCM; conditions: for recommended working concentration: from dose-response in Basal3.0, day 10; for effect on the iCD1 reprogramming efficiency: added to iCD1: A83-01 0.5 μM, valproic acid 1 mM, 2% fetal bovine serum; for effect on the reprogramming efficiency: ingredient left out of iCD1, clones at day 8 after SKO infection
Source text: Somatic cell type used in reprogramming is OG2 MEFs of no more than 3 passages. OG2 mice are transgenic mice with green fluorescent protein (GFP) gene linked after the promoter of Oct4 gene specifically expressed by stem cell. At a later stage of the reprogramming, endogenous Oct4 of OG2 MEF is activated, and the green fluorescent protein is concomitantly expressed, so the cells or reprogrammed clones appear green when observed under a fluorescence microscope. The reprogramming efficiencies under different conditions can be compared by a research by directly counting the reprogrammed clones, that is, the green fluorescent clones under a fluorescence microscope, or by analyzing the ratio of the green fluorescent cells through flow cytometry (FCM).
Cell assay and preparation of viruses are as follows. […] 6-18 hrs after the cell seeding, the cells are infected with the viruses carrying a mouse reprogramming factor according to the cell density and state. The infection is carried out in two rounds, 24 hrs after the first round of infection, the second round of infection is carried out, and the virus fluid is replaced by various test media 24 hrs after the second round of infection. The day of replacing the virus fluid is recorded as day 0 (D0), and the GFP fluorescent clones are counted in the original wells or the ratio of the GFP fluorescent cells are analyzed by flow cytometry (FCM) at different times after infection as desired.
The preparation of virus includes transfecting virus packaging cells (PlatE) with reprogramming factor plasmid cloned onto a PMX vector, refreshing the culture media 12-16 hrs after infection, using the culture collected 48 hrs after the transfection as a virus fluid for the first infection, and using the additional culture collected 24 hrs after adding fresh culture as a virus fluid for the second infection. […]

Oct4-GFP MEFs [2] = test: Growth curves of SKO-infected embryonic fibroblasts in iCD1 lacking single ingredients; conditions: ingredient left out of iCD1, cells counted at D0, day 3, day 6
Source text: In order to determine whether the effects of the above six substances on reprogramming are cell growth dependent or independent, growth curves of the embryonic fibroblasts infected with reprogramming factor SKO and then cultured respectively in 9 culture states including iCD1, iCD1 without vitamin C, iCD1 without bFGF, iCD1 without CHIR99021, iCD1 without lithium chloride, iCD1 without vitamin B12, iCD1 without thiamine, iCD1 without all of the six ingredients, and mES were plotted. 2×10^4 initial Oct4-GFP MEFs were infected with SKO viruses, and then cultured respectively in the above 9 culture media. The cells were digested respectively at the day of infection and medium replacement (day D0) and days 3 and 6 after infection, and the cells per well were counted. The replications n in each group of test are 3, and the error bar represents standard deviation (SD).

Oct4-GFP MEFs [3] = test: iPS efficiency test: MEFs infected with SKO viruses, reprogrammed clones counted / GFP cell ratio by FCM; conditions: 1×10^4 MEFs, clones at day 10

## O=C(O)CCCC[C@@H]1CCSS1 (racemic) [lipoic acid]
Oct4-GFP MEFs [1]
  recommended working concentration: 0.2 µg/mL

## Cc1cccc(-c2nn(C(=S)Nc3ccccc3)cc2-c2ccnc3ccccc23)n1 [A83-01, reference compound]
Oct4-GFP MEFs [1]; clones at day 10
  effect on the iCD1 reprogramming efficiency: cannot further improve the iCD1 reprogramming efficiency

## Cc1c[nH]c(-c2cnc(NCCNc3ccc(C#N)cn3)nc2-c2ccc(Cl)cc2Cl)n1 [CHIR99021, reference compound]
Oct4-GFP MEFs [2]
  effect on cell growth: different degrees of effects on cell growth
Oct4-GFP MEFs [1]; added to Basal3.0, clone number and cell ratio as indexes
  effect on reprogramming efficiency of Basal3.0: can significantly improve the reprogramming efficiency
Oct4-GFP MEFs [1]; in iCD1, 0-12 μmol/ml, clones at day 10
  effect of high dose on the reprogramming efficiency: inhibition effect on the reprogramming efficiency
Oct4-GFP MEFs [1]
  effect on the reprogramming efficiency: especially remarkable
Oct4-GFP MEFs [3]; in iCD1, 0-12 μmol/ml
  optimum effect concentration: about 3 mM

## NCCO [ethanolamine]
Oct4-GFP MEFs [1]
  recommended working concentration: 1 µg/mL

## CCCCC/C=C\C/C=C\CCCCCCCC(=O)O [linoleic acid]
Oct4-GFP MEFs [1]
  recommended working concentration: 1 µg/mL

## [Cl-].[Li+] [lithium chloride, Lithium chloride]
Oct4-GFP MEFs [1]
  recommended working concentration: 5 mmol/mL
  effect on the reprogramming efficiency: have effects on the reprogramming efficiency

## N[C@@H](CCC(=O)N[C@@H](CS)C(=O)NCC(=O)O)C(=O)O [reduced glutathione]
Oct4-GFP MEFs [1]; anti-oxidants
  recommended working concentration: 1500 µg/mL

## Cc1ncc(C[n+]2csc(CCO)c2C)c(N)n1 [thiamine]
Oct4-GFP MEFs [1]; anti-oxidants
  recommended working concentration: 9000 µg/mL
Oct4-GFP MEFs [1]
  effect on the reprogramming efficiency: have effects on the reprogramming efficiency

## CCCC(CCC)C(=O)O [valproic acid (VPA), valproic acid, reference compound]
Oct4-GFP MEFs [1]; clones at day 10
  effect on the iCD1 reprogramming efficiency: cannot further improve the iCD1 reprogramming efficiency

## O=C1O[C@H]([C@@H](O)CO)C(O)=C1O [vitamin C, ascorbic acid]
Oct4-GFP MEFs [2]
  effect on cell growth: no obvious effect on cell growth
Oct4-GFP MEFs [1]
  recommended working concentration: 50 µg/mL
  effect on the reprogramming efficiency: especially remarkable
Oct4-GFP MEFs [1]; in iCD1, 0-100 μg/ml, 2×10^4 MEFs, clones at day 10
  concentration above which an increase has no obvious improvement effect on the reprogramming efficiency: higher than 25 μg/ml

## EGF: epidermal growth factor
Oct4-GFP MEFs [1]; added to iCD1 without receptor tyrosine kinase, clones at day 10
  effect on reprogramming (receptor tyrosine kinase family growth factor): can also promote the reprogramming

## bFGF: basic fibroblast growth factor
Oct4-GFP MEFs [2]
  effect on cell growth: different degrees of effects on cell growth
Oct4-GFP MEFs [1]; added to iCD1 at different times from days 0 to 10, clones at day 10, n=6
  period of the reprogramming in which it mainly plays a role: 0 to 8 days
Oct4-GFP MEFs [1]
  recommended working concentration: 0.005 µg/mL
  effect on the reprogramming efficiency: especially remarkable
Oct4-GFP MEFs [3]; in iCD1, 0-10 ng/ml
  final concentration above which an increase has no obvious improvement effect on the reprogramming efficiency: higher than 5 ng/ml

## insulin: recombinant human insulin (SIGMA Inc.) preferred
Oct4-GFP MEFs [1]
  recommended working concentration: 50 µg/mL

## vitamin A
Oct4-GFP MEFs [1]
  recommended working concentration: 0.1 µg/mL

## vitamin B12
Oct4-GFP MEFs [1]
  recommended working concentration: 1.4 µg/mL
  effect on the reprogramming efficiency: have effects on the reprogramming efficiency

## vitamin E
Oct4-GFP MEFs [1]; anti-oxidants
  recommended working concentration: 1000 µg/mL
